Source: patent publication US5138069A (E. I. Du Pont de Nemours and Company, priority 1988, dated 1992)

Test system: Renal Hypertensive Rats
Experiment: Antihypertensive effects in renal hypertensive rats
Assay type: in vivo
Conditions: Rattus norvegicus; for minimal effective dose at 10 mg/kg / minimal effective dose at 100 mg/kg: Table 25; for minimal effective dose at 10 mg/kg / minimal effective dose at 3 mg/kg: intravenous; for minimal effective dose at 10 mg/kg: 10 mg/kg or less; for minimal effective dose at 100 mg/kg / minimal effective dose at 30 mg/kg: oral; for minimal effective dose at 100 mg/kg: 100 mg/kg or less; for minimal effective dose at 30 mg/kg / minimal effective dose at 3 mg/kg: Table 26
Experimental: This procedure increases blood pressure by increasing renin production with consequent elevation of AII levels. Compounds are administered orally at 100 mg/kg and/or intravenously via a cannula in the jugular vein at 10 mg/kg. Arterial blood pressure is continuously measured directly through a carotid artery cannula and recorded using a pressure transducer and a polygraph. Blood pressure levels after treatment are compared to pretreatment levels to determine the antihypertensive effects of the compounds (See Table 25).
Compounds listed in Table 26 were tested in the same manner as described for Table 25, except that in the test for antihypertensive effects in renal hypertensive rats, the compounds were administered orally at 30 mg/kg and intravenously at 3 mg/kg.

Structure (SMILES)	minimal effective dose at 10 mg/kg [mg/kg]	minimal effective dose at 100 mg/kg [mg/kg]	other results
CC/C=C/c1nc(Cl)c(CO)n1Cc1ccc(-c2ccccc2C(=O)O)cc1 [Example 128, 1-[(2'-Carboxybiphenyl-4-yl)-methyl]-2-(1-trans-butenyl)-4-chloro-5-hydroxymethylimidazole]	< 10	< 100	
CCCc1nc(C(F)(F)C(F)(F)F)c(C=O)n1Cc1ccc(-c2ccccc2-c2nnn[nH]2)cc1 [Example 140G]			minimal effective dose at 30 mg/kg: < 30 mg/kg
CCCCc1nc(Cl)c(CO)n1Cc1ccc(-c2ccccc2NC(=O)C(F)(F)F)cc1 [Example 183, 1-[(2'-Trifluoroacetamidobiphenyl-4-yl)methyl]-2-butyl-4-chloro-5-hydroxymethylimidazole]	< 10	> 100	
CCCCc1nc(Cl)c(COC)n1Cc1ccc(NC(=O)c2c(Cl)ccc(Cl)c2C(=O)O)cc1 [Example 17]			minimal effective dose at 10 mg/kg (tested as sodium salt): < 10 mg/kg; minimal effective dose at 100 mg/kg (tested as sodium salt): > 100 mg/kg
CCCCc1nc(Cl)c(COC)n1Cc1ccc(-c2ccccc2NS(=O)(=O)C(F)(F)F)cc1 [Example 141, 1-[(2'-trifluoromethanesulfonamidobiphenyl-4-yl)methyl]-2-butyl-4-chloro-5-methoxymethylimidazole]	< 10	< 100	
CCCCc1nc(CO)c(Cl)n1Cc1ccc(C(=O)c2ccccc2C(=O)O)cc1 [Example 203]			minimal effective dose at 10 mg/kg (tested as sodium salt): < 10 mg/kg; minimal effective dose at 100 mg/kg (tested as sodium salt): < 100 mg/kg
CCCSc1ncc(CO)n1Cc1ccc(-c2ccccc2C(=O)O)cc1 [Example 93, 1-[(2'-carboxybiphenyl-4-yl)-methyl]-2-propylthio-5-hydroxymethylimidazole]	< 10	> 100	
CCCCc1nc(Cl)c(C(=O)O)n1Cc1ccc(-c2ccccc2-c2nn[nH]n2)cc1 [Example 252]			minimal effective dose at 3 mg/kg: < 3 mg/kg; minimal effective dose at 30 mg/kg: < 30 mg/kg
CCCCc1nc(Cl)c(COC)n1Cc1ccc(-c2ccccc2C(=O)O)cc1 [Example 98]			minimal effective dose at 10 mg/kg (tested as sodium salt): < 10 mg/kg; minimal effective dose at 100 mg/kg (tested as sodium salt): < 100 mg/kg
CCCCc1nc(Cl)c(COC)n1Cc1ccc(-c2ccccc2C(=O)Nc2nnn[nH]2)cc1 [Example 173, 2-n-Butyl-4-chloro-5-methoxymethyl-1-[(2'-((tetrazol-5-yl)aminocarbonyl)biphenyl-4-yl)-methyl]imidazole]			minimal effective dose at 10 mg/kg (tested as sodium salt): < 10 mg/kg
CCCCc1nc(Cl)c(CO)n1Cc1ccc(-c2ccccc2NS(=O)(=O)C(F)(F)F)cc1 [Example 144]	< 10	< 100	
CCCCc1nc(Cl)c(COC)n1Cc1ccc(NC(=O)c2ccccc2C(=O)O)cc1 [Example 4, 2-Butyl-1-[4-(2-carboxybenzamido)benzyl]-4-chloro-5-(methoxymethyl)-imidazole]			minimal effective dose at 10 mg/kg (tested as sodium salt): < 10 mg/kg; minimal effective dose at 100 mg/kg (tested as sodium salt): > 100 mg/kg
CCCCc1nc(Cl)c(CC(=O)OC)n1Cc1ccc(NC(=O)c2ccccc2C(=O)O)cc1 [Example 2, Methyl 2-butyl-1-[4-(2-carboxybenzamido)benzyl]-4-chloroimidazole-5-acetate]			minimal effective dose at 10 mg/kg (tested as sodium salt): < 10 mg/kg; minimal effective dose at 100 mg/kg (tested as sodium salt): > 100 mg/kg
CCCc1nc(C(F)(F)C(F)(F)F)c(C(=O)O)n1Cc1ccc(-c2ccccc2-c2nn[nH]n2)cc1 [Example 265C]			minimal effective dose at 3 mg/kg: < 3 mg/kg
CCCCc1nc(Cl)c(CC(=O)O)n1Cc1ccc(C(=O)O)cc1 [Example 1, 2-Butyl-1-(4-carboxybenzyl)-4-chloroimidazole-5-acetic acid]	< 10	> 100	
CCCCc1nc(Cl)c(CO)n1Cc1ccc(Oc2ccccc2C(=O)O)cc1 [Example 184, 2-Butyl-4-chloro-1-[4-(2-carboxyphenoxy)benzyl]-5-hydroxymethylimidazole]	< 10	> 100	
CCCCc1nc(Cl)c(COC)n1Cc1ccc(NC(=O)c2ccccc2S(=O)(=O)O)cc1 [Example 18a]			minimal effective dose at 3 mg/kg: < 3 mg/kg; minimal effective dose at 30 mg/kg: < 30 mg/kg
CCCCc1nc(Cl)c(CO)n1Cc1ccc(-c2occc2C(=O)O)cc1 (single isomer, unassigned) [Example 178, 2-n-Butyl-1-[4-(3-carboxyfuran-2-yl)benzyl]-4-chloro-5-(hydroxymethyl)imidazole]	< 10	< 100	
CCCCc1nc(I)c(CO)n1Cc1ccc(-c2ccccc2-c2nnn[nH]2)cc1 [Example 124L]			minimal effective dose at 3 mg/kg: < 3 mg/kg; minimal effective dose at 30 mg/kg: < 30 mg/kg
CCCCc1nc(Cl)c(CO)n1Cc1ccc(C(=O)c2ccccc2C(=O)O)cc1 [Example 202, 2-Butyl-1-[4-(2-Carboxybenzoyl)benzyl]-4-chloro-5-(hydroxymethyl)imidazole]			minimal effective dose at 10 mg/kg (tested as sodium salt): < 10 mg/kg; minimal effective dose at 100 mg/kg (tested as sodium salt): > 100 mg/kg

Structure (SMILES)	minimal effective dose at 10 mg/kg [mg/kg]	minimal effective dose at 100 mg/kg [mg/kg]	other results
CCCCc1nc(Cl)c(CO)n1Cc1ccc(-c2cccc(C(=O)O)c2)cc1 [Example 85, 1-[(3'-Carboxybiphenyl-4-yl)-methyl]-2-butyl-4-chloro-5-hydroxymethylimidazole]	< 10	< 100	
CCCCc1nc(Cl)c(CO)n1Cc1ccc(-c2ccccc2C(=O)NS(=O)(=O)c2ccccc2)cc1 [Example 318, 1-[(2'-(Benzenesulfonamidocarbonyl)biphenyl-4-yl)methyl]-2-butyl-4-chloro-5-hydroxymethylimidazole]	< 10	> 100	
CCCCc1nc(Br)c(CO)n1Cc1ccc(-c2ccccc2-c2nn[nH]n2)cc1 [Example 124C]			minimal effective dose at 3 mg/kg: < 3 mg/kg; minimal effective dose at 30 mg/kg: < 30 mg/kg
CC/C=C/c1nc(Cl)c(C=O)n1Cc1ccc(-c2ccccc2C(=O)O)cc1 [Example 129, 1-[(2'-Carboxybiphenyl-4-yl)methyl]-2-(1-trans-butenyl)-4-chloroimidazole-5-carboxaldehyde]	< 10	< 100	
CCCCc1nc(Cl)c(CO)n1Cc1ccc(-c2ccccc2-c2nnn[nH]2)cc1 [Example 89, 2-n-butyl-4-chloro-5-hydroxymethyl-1-[(2'-(1H-tetrazol-5-yl)biphenyl-4-yl)methyl]imidazole]	< 10	< 100	
CCCCc1nc(Cl)c(COC(C)=O)n1Cc1ccc(-c2ccccc2C(=O)O)cc1 [Example 121]	< 10	< 100	
CCCCc1nc(Cl)c(COC)n1Cc1ccc(-c2cccc(C(=O)O)c2)cc1 [Example 86, 1-[(3'-Carboxybiphenyl-4-yl)-methyl]-2-butyl-4-chloro-5-methoxymethylimidazole]	< 10	> 100	
CCCCc1nc(CO)c(Cl)n1Cc1ccc(-c2ccccc2-c2n[nH]c(C(F)(F)F)n2)cc1 [Example 341, 2-n-Butyl-5-chloro-4-hydroxy-methyl-1-[(2'-(5-trifluoromethyl-1,2,4-triazol-3-yl)biphenyl-4-yl)methyl]imidazole]	< 10	< 100	
CCCCc1nc(Cl)c(C=O)n1Cc1ccc(-c2ccccc2C(=O)O)cc1 [Example 125, 1-[(2'-carboxybiphenyl-4-yl)methyl]-2-butyl-4-chloroimidazole-5-carboxaldehyde]	< 10	< 100	
CCCCc1nc(Cl)c(CO)n1Cc1ccc(-c2ccccc2C(=O)NOC)cc1 [Example 180, 1-[(2'-Methoxyaminocarbonylbiphenyl-4-yl)methyl]-2-butyl-4-chloro-5-hydroxymethylimidazole]	< 10	> 100	
CCCCc1nc(C(F)(F)F)c(CO)n1Cc1ccc(-c2ccccc2-c2nnn[nH]2)cc1 [Example 92B, 2-butyl-5-hydroxymethyl-1-[(2'-(1H-tetrazol-5-yl)biphenyl-4-yl)methyl]-4-trifluoromethylimidazole]			minimal effective dose at 3 mg/kg: < 3 mg/kg
CCCCc1ncc(CO)n1Cc1ccc(OCc2ccccc2C(=O)O)cc1 [Example 193, 1-[4-(2-Carboxybenzyloxy)-benzyl] -2-butyl-5-hydroxymethylimidazole]	< 10	> 100	
CCCCc1nc(Cl)c(CO)n1Cc1ccc(OCc2ccccc2C(=O)O)cc1 [Example 195]	< 10	< 100	
CCCCc1nc(Cl)c(COC)n1Cc1ccc(C(=O)c2ccccc2C(=O)O)cc1 [Example 207]			minimal effective dose at 10 mg/kg (tested as sodium salt): < 10 mg/kg; minimal effective dose at 100 mg/kg (tested as sodium salt): < 100 mg/kg
CCCc1nc(-c2ccccc2)c(C=O)n1Cc1ccc(-c2ccccc2C(=O)O)cc1 [Example 322]			minimal effective dose at 3 mg/kg: < 3 mg/kg; minimal effective dose at 30 mg/kg: < 30 mg/kg
CCCCc1nc(Cl)c(CO)n1Cc1ccc(Sc2ccccc2C(=O)O)cc1 [Example 185]	< 10	> 100	
CCCCc1nc(Cl)c(CC(=O)OC)n1Cc1ccc(NC(=O)c2c(F)c(F)c(F)c(F)c2C(=O)O)cc1 [Example 8]			minimal effective dose at 100 mg/kg (tested as sodium salt): > 100 mg/kg
CCCCCCc1nc(Cl)c(CO)n1Cc1ccc(-c2ccccc2C(=O)O)cc1 [Example 110]	< 10	< 100	
CCCCc1nc(Cl)c(COC(C)=O)n1Cc1ccc(OCc2ccccc2C(=O)O)cc1 [Example 199]		> 100	
